Patent publication US6835736B1, “Discorhabdin compounds and methods of use” (Harbor Branch Oceanographic Institution, Inc., priority 2003, dated 2004)

What was measured:
Format in all cases: cell-based
[1] = system: PANC-1 human pancreatic cell line; assay: Antiproliferative MTT assay, PANC-1 cells; conditions: additional 48 hour exposure
Description: (§1) Extracts and compounds were analyzed as to their effects on proliferation of A549 human adenocarcinoma, PANC-1 human pancreatic and P388 murine leukemia cell lines. P388 and NCI/ADR cells were obtained from Dr. R. Camalier, National Cancer Institute, Bethesda, Md., and A549 and PANC-1 cells were obtained from American Type Culture Collection, Rockville, Md. All cell lines were maintained in Roswell Park Memorial Institute (RPMI) medium 1640 supplemented with 10% fetal bovine sernm. All cell lines are cultured in plastic tissue culture flasks and kept in an incubator at 37° C. in humidified air containing 5% CO2. Prior to testing, antibiotic-free stock cultures of each of the cell lines were subcultured to […] by dilution in fresh growth medium at 2 to 3 day intervals.
(§2) To assess the antiproliferative effects of extracts and compounds against the P388 cell line, 200 μl cultures (96-well tissue culture plates, Nunc, Denmark) are established at 1×10^5 cells/ml in drug-free medium or medium containing the test agent at 10.0, 1.0, 0.10 and 0.010 μg/ml. Solvent for all dilutions ethanol. All experimental cultures are initiated in medium containing gentamycin su fate (50 μg/ml; Schering Corporation, Kenilworth, N.J.). After 48-h exposures, P388 cells are enumerated using 3-[4,5-dimethylthiazol-2-yl]-2,5-diphenyltetrazolium bromide (MTT) as described below (M. C. Alley et al., 1988, Cancer Res. 48:589.
(§3) Similar procedures are utilized for A549 and PANC-1 cells which require an additional 48 hour exposure prior to MTT addition. Results are expressed as percent inhibition compared to the negative (no drug) control. Positive drug controls are included to monitor drug sensitivity of each of the cell lines. These include varying dilutions of 5-fluorouracil and adriamycin.
(§4) To quantitate the effects of pure compounds on cell proliferation and resulting IC50 values, 75 μl of warm growth media containing 5 mg/ml MTT is added to each well, cultures returned to the incubator, and left undisturbed for 90 minutes. […]

NCI/ADR cells = assay: Antiproliferative MTT assay, NCI/ADR cells; conditions: Homo sapiens, NCI/ADR-RES
Description: as §1
(§5) To quantitate the effects of pure compounds on cell proliferation and resulting IC50 values, 75 μl of warm growth media containing 5 mg/ml MTT is added to each well, cultures returned to the incubator, and left undisturbed for 90 minutes. To spectrophotometrically quantitate formation of reduced formazan, plates are centrifuged (900×g, 5 minutes), culture fluids removed by aspiration, and 200 μl of acidified isopropanol (2 ml concentrated HCl/liter isopropanol) added per well. The absorbance of the resulting solutions is measured at 570 nm with a plate reader (TECAN Spectra II Plate Reader, TECAN U.S., Research Triangle Park, NC). […]

[2] = system: A549 human adenocarcinoma cell line; assay: Antiproliferative MTT assay, A549 cells; conditions: additional 48 hour exposure
Description: as §1, §2, §3, §4

[3] = system: P388 murine leukemia cell line; assay: Antiproliferative MTT assay, P388 cells; conditions: Mus musculus, 48-h exposure, read-out: Activity (IC50) P-388
Description: as §1, §2, §5

Compound | IC50 [1] [µg/mL] | IC50 (NCI/ADR cells) [µg/mL] | IC50 [2] [µg/mL] | IC50 [3] [µg/mL]
CSC1=CC(=O)C(Br)=CC12CCNC1=C2c2nccc3cn(C)c(c23)C1=O (stereo not drawn) [Discorhabdin S] | 2.6 | > 5 | > 5 | 3.08
CSC1=CC(=O)C(Br)=CC12C=CNC1=C2c2nccc3cn(C)c(c23)C1=O (stereo not drawn) [Discorhabdin T] | 0.7 | > 5 | > 5 | > 5
CSC1=CC(=O)C(Br)=CC12C=CNC1=C2C2=NCCc3cn(C)c(c32)C1=O (stereo not drawn) [Discorhabdin U] | 0.069 | 0.22 | 0.34 | 0.17
